Data reported in PubChem BioAssay (NCI).
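Following 48 hours of exposure in 96-well plates, responses at five concentrations were used to interpolate endpoints linearly. TGI: total growth inhibition.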

Columns and labels:
Experiment in all cases: inhibition of tumour cell growth, NCI panel, 48 h
786-0 renal = tested on: 786-0 renal
A498 renal = tested on: A498 renal
A549 NSCLC = tested on: A549 NSCLC
ACHN renal = tested on: ACHN renal
BT-549 breast = tested on: BT-549 breast
CAKI-1 renal = tested on: CAKI-1 renal
CCRF-CEM leukemia = tested on: CCRF-CEM leukemia
COLO 205 colon = tested on: COLO 205 colon
DU-145 prostate = tested on: DU-145 prostate
EKVX NSCLC = tested on: EKVX NSCLC
HCC-2998 colon = tested on: HCC-2998 colon
HCT-116 colon = tested on: HCT-116 colon
HCT-15 colon = tested on: HCT-15 colon
HL-60(TB) leukemia = tested on: HL-60(TB) leukemia
HOP-62 NSCLC = tested on: HOP-62 NSCLC
HOP-92 NSCLC = tested on: HOP-92 NSCLC
HS 578T breast = tested on: HS 578T breast
HT29 colon = tested on: HT29 colon
IGROV1 ovarian = tested on: IGROV1 ovarian
K-562 leukemia = tested on: K-562 leukemia
LOX IMVI melanoma = tested on: LOX IMVI melanoma
M14 melanoma = tested on: M14 melanoma
MALME-3M melanoma = tested on: MALME-3M melanoma
MCF7 breast = tested on: MCF7 breast
MDA-MB-231 breast = tested on: MDA-MB-231 breast
MDA-MB-435 = tested on: MDA-MB-435
MDA-N = tested on: MDA-N
MOLT-4 leukemia = tested on: MOLT-4 leukemia
NCI-H23 lung = tested on: NCI-H23 lung
NCI-H460 lung = tested on: NCI-H460 lung
NCI-H522 lung = tested on: NCI-H522 lung
NCI/ADR-RES ovarian = tested on: NCI/ADR-RES ovarian
OVCAR-3 ovarian = tested on: OVCAR-3 ovarian
OVCAR-4 ovarian = tested on: OVCAR-4 ovarian
OVCAR-5 ovarian = tested on: OVCAR-5 ovarian
OVCAR-8 ovarian = tested on: OVCAR-8 ovarian
PC-3 prostate = tested on: PC-3 prostate
RXF 393 renal = tested on: RXF 393 renal
SF-268 CNS = tested on: SF-268 CNS
SF-539 CNS = tested on: SF-539 CNS
SK-MEL-2 melanoma = tested on: SK-MEL-2 melanoma
SK-MEL-28 melanoma = tested on: SK-MEL-28 melanoma
SK-OV-3 ovarian = tested on: SK-OV-3 ovarian
SN12C renal = tested on: SN12C renal
SNB-19 CNS = tested on: SNB-19 CNS
SR leukemia = tested on: SR leukemia
SW-620 colon = tested on: SW-620 colon
TK-10 renal = tested on: TK-10 renal
U251 CNS = tested on: U251 CNS
UACC-257 melanoma = tested on: UACC-257 melanoma
UACC-62 melanoma = tested on: UACC-62 melanoma
UO-31 renal = tested on: UO-31 renal

SMILES: CSc1nc(Cl)c2c(n1)Sc1ncnn1C2O (configuration not stated)
- TGI (786-0 renal): 9.08 µM
- TGI (A498 renal): 38.1 µM
- TGI (A549 NSCLC): 36.9 µM
- TGI (ACHN renal): 15.4 µM
- TGI (BT-549 breast): 28.8 µM
- TGI (CAKI-1 renal): 25.4 µM
- TGI (CCRF-CEM leukemia): 10.9 µM
- TGI (COLO 205 colon): 62.7 µM
- TGI (DU-145 prostate): 19.2 µM
- TGI (EKVX NSCLC): 36.3 µM
- TGI (HCC-2998 colon): 27.4 µM
- TGI (HCT-116 colon): 17.1 µM
- TGI (HCT-15 colon): 18.4 µM
- TGI (HL-60(TB) leukemia): 14.8 µM
- TGI (HOP-62 NSCLC): 41.1 µM
- TGI (HOP-92 NSCLC): 30.3 µM
- TGI (HS 578T breast): 23.2 µM
- TGI (HT29 colon): 28.4 µM
- TGI (IGROV1 ovarian): 34.2 µM
- TGI (K-562 leukemia): 30.6 µM
- TGI (LOX IMVI melanoma): 21.1 µM
- TGI (M14 melanoma): 29 µM
- TGI (MALME-3M melanoma): 8.22 µM
- TGI (MCF7 breast): 16 µM
- TGI (MDA-MB-231 breast): 31.6 µM
- TGI (MDA-MB-435): 15.9 µM
- TGI (MDA-N): 20.5 µM
- TGI (MOLT-4 leukemia): 27.1 µM
- TGI (NCI-H23 lung): 30.9 µM
- TGI (NCI-H460 lung): 46.4 µM
- TGI (NCI-H522 lung): 4.23 µM
- TGI (NCI/ADR-RES ovarian): 54.6 µM
- TGI (OVCAR-3 ovarian): 20.1 µM
- TGI (OVCAR-4 ovarian): 29.6 µM
- TGI (OVCAR-5 ovarian): 32.3 µM
- TGI (OVCAR-8 ovarian): 15.7 µM
- TGI (PC-3 prostate): 27.7 µM
- TGI (RXF 393 renal): 5.63 µM
- TGI (SF-268 CNS): 26.7 µM
- TGI (SF-539 CNS): 15.5 µM
- TGI (SK-MEL-2 melanoma): 41.8 µM
- TGI (SK-MEL-28 melanoma): > 100 µM
- TGI (SK-OV-3 ovarian): 42.2 µM
- TGI (SN12C renal): 24 µM
- TGI (SNB-19 CNS): 45.2 µM
- TGI (SR leukemia): > 100 µM
- TGI (SW-620 colon): 36.3 µM
- TGI (TK-10 renal): 31.2 µM
- TGI (U251 CNS): 33.9 µM
- TGI (UACC-257 melanoma): 45.7 µM
- TGI (UACC-62 melanoma): 26.3 µM
- TGI (UO-31 renal): 5.24 µM
